We go through five molecules from publication PMC7444661 (Journal of medicinal chemistry, 2019).

Data set [1] is described as follows: Liver microsome stability. The format is in vitro ADME, dog, mouse, rat and monkey. The conditions noted are these: human.
Data set [2] is described as follows: Pharmacokinetics in mice. The format is in vivo. As to conditions: oral.
For data set [3], the target named is T1, PDE4D7-S129D (Homo sapiens, UniProt Q08499, S190D/S715A/S717A). The data set is described as follows: PDE4D7-S129D inhibition in the presence of bovine serum albumin. The conditions noted are these: bovine serum albumin at 1 mg/mL.
T1 sequence (Q08499 1-748 isoform Q08499-11 S129D/S654A/S656A): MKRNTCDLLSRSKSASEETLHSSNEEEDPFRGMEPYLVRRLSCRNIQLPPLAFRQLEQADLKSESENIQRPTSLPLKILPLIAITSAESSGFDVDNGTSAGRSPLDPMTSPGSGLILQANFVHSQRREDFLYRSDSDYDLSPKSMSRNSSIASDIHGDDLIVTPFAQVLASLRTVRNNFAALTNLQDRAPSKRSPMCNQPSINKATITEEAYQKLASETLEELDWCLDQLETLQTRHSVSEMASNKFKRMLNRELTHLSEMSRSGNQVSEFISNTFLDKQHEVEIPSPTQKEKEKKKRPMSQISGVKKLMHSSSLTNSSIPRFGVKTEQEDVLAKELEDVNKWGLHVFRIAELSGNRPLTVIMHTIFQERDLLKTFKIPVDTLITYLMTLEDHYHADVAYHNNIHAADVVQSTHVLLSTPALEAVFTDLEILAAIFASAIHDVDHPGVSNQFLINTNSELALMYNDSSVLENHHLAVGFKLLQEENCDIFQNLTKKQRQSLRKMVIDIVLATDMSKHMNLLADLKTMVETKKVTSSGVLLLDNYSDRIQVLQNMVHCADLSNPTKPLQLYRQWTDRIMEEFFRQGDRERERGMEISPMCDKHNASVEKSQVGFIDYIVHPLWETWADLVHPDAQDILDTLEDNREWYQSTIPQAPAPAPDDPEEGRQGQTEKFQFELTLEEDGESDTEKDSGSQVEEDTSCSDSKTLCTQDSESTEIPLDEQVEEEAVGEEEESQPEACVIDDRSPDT
Data set [4] addresses T1, PDE4D7-S129D. As to the kind of experiment: PDE4 coupled enzyme assay of cAMP hydrolysis, PDE4D7-S129D. The format is biochemical. As to conditions: mean ± SD.
Data set [5] concerns the target PDE4B1-S133D (Homo sapiens, UniProt Q07343, S133D/S659A/S661A). The data set is described as follows: PDE4 coupled enzyme assay of cAMP hydrolysis, PDE4B1-S133D. It counts as biochemical. As to conditions: mean ± SD.
Data set [6] deals with PDE4D7-S129(wt) (Homo sapiens, UniProt Q08499, S715A/S717A). As to the kind of experiment: PDE4 coupled enzyme assay of cAMP hydrolysis, PDE4D7-S129. The format is biochemical. The conditions noted are these: mean ± SD.
Chain of PDE4D7-S129(wt) (Q08499 1-748 isoform Q08499-11 S654A/S656A): as the sequence (Q08499 1-748 isoform Q08499-11 S129D/S654A/S656A) above, with D129S counted along it
Data set [7] has as its target PDE4D3-S54D (Homo sapiens, UniProt Q08499, S190D/S715A/S717A). As to the kind of experiment: PDE4 coupled enzyme assay of cAMP hydrolysis, PDE4D3-S54D. As to conditions: mean ± SD. It counts as biochemical.
Data set [8] deals with PDE4D2 (Homo sapiens, UniProt Q08499, S715A/S717A). The data set is described as follows: PDE4 coupled enzyme assay of cAMP hydrolysis, PDE4D2. The conditions noted are these: mean ± SD. The format is biochemical.
Chain of PDE4D2 (Q08499 303-809 S715A/S717A): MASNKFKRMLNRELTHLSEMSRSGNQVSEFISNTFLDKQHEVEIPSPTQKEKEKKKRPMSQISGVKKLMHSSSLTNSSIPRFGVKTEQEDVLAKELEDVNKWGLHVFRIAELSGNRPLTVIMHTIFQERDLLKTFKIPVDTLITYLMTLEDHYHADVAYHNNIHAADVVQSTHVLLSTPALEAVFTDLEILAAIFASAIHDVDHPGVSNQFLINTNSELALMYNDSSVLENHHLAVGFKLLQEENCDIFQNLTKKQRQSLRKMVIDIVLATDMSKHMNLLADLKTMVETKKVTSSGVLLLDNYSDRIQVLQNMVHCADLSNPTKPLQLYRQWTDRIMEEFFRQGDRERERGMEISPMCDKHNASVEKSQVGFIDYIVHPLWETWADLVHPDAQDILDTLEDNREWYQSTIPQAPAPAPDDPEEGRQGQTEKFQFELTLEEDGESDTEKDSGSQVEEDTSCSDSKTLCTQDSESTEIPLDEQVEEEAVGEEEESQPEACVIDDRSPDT
Data set [9] addresses PDE4D-cat (Homo sapiens, UniProt Q08499, S715A/S717A). As to the kind of experiment: PDE4 coupled enzyme assay of cAMP hydrolysis, PDE4D-cat. The conditions noted are these: mean ± SD. It counts as biochemical.
Data set [10] deals with mice. The data set is described as follows: Mouse novel object recognition after 24-hour delay. It counts as in vivo, Male ICR mice. The conditions noted are these: mouse NOR.
Data set [11] concerns mice. The data set is described as follows: Anesthesia duration test. It counts as in vivo, Male ICR mice. As to conditions: mouse.
The test system of data set [12] is PDE1-11. As to the kind of experiment: Counter assays against PDE1-11. As to conditions: read-out: off target IC50 against PDE1-11; BPS Bioscience, all assays. It counts as biochemical.
Data set [13] relates to rats. The data set is described as follows: Safety pharmacology, CNS and pulmonary, rats. It counts as in vivo. The conditions noted are these: up to a maximum oral dose of 60 mg/kg.
Data set [14] deals with dog. As to the kind of experiment: Safety pharmacology, cardiovascular function, dog. The conditions noted are these: up to a maximum oral dose of 100 mg/kg. The format is in vivo.
Data set [15] deals with rats. As to the kind of experiment: Dose range finding toxicology, rats. It counts as in vivo. As to conditions: oral dose of 100 mg/kg.
Data set [16] has as its system dogs. The data set is described as follows: Dose range finding toxicology, dogs. It counts as in vivo. As to conditions: 100 mg/kg.
Data set [17] relates to rats and dogs. The data set is described as follows: Toxicological studies of 28 and 90 days duration. It counts as in vivo.
The test system of data set [18] is ferrets. As to the kind of experiment: Emesis in ferrets. It counts as in vivo. The conditions noted are these: oral doses up to 30 mg/kg.
The subject of data set [19] is cynomolgus monkeys. As to the kind of experiment: Emesis in cynomolgus monkeys. The format is in vivo. The conditions noted are these: oral doses up to 50 mg/kg.
For data set [20], the system named is FMR1 knockout mice. The conditions noted are these: cited from earlier work.
In data set [21] the test system is humanized PDE4D mice. As to conditions: cited from earlier work.
Data set [22] concerns bacteria. As to the kind of experiment: Mutagenicity in bacteria.
A short description of data set [23]: Metabolite identification in human hepatocytes. The format is in vitro ADME. As to conditions: compound 23 incubated 4 hour with human hepatocytes.
The nature of data set [24]: Metabolite identification in rat hepatocytes. It counts as in vitro ADME, male Wistar rats. The conditions noted are these: compound 23 incubated 4 hour with rat hepatocytes.

Bounds are passed on as bounds.

Chain of PDE4B1-S133D (Q07343 whole entry S133D/S659A/S661A): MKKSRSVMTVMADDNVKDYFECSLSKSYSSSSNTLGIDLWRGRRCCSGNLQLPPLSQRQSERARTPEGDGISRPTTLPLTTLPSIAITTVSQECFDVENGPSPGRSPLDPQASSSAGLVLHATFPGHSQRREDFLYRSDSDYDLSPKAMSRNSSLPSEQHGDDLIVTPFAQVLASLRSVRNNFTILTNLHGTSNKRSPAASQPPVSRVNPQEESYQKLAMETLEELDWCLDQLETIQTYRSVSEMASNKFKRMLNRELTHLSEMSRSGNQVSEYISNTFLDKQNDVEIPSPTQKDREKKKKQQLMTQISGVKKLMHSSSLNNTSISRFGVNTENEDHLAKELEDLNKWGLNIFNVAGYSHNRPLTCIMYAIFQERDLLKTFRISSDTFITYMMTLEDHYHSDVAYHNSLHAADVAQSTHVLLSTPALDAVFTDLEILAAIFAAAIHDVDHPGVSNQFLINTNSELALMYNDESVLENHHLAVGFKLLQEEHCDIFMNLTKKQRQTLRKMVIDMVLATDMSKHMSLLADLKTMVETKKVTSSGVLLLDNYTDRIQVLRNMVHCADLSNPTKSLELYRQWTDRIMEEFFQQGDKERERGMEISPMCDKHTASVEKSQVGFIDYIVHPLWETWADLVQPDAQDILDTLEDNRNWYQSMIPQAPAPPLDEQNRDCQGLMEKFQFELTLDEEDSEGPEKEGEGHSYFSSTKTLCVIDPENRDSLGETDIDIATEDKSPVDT
Chain of PDE4D3-S54D (Q08499 1-673 isoform Q08499-2 S54D/S579A/S581A): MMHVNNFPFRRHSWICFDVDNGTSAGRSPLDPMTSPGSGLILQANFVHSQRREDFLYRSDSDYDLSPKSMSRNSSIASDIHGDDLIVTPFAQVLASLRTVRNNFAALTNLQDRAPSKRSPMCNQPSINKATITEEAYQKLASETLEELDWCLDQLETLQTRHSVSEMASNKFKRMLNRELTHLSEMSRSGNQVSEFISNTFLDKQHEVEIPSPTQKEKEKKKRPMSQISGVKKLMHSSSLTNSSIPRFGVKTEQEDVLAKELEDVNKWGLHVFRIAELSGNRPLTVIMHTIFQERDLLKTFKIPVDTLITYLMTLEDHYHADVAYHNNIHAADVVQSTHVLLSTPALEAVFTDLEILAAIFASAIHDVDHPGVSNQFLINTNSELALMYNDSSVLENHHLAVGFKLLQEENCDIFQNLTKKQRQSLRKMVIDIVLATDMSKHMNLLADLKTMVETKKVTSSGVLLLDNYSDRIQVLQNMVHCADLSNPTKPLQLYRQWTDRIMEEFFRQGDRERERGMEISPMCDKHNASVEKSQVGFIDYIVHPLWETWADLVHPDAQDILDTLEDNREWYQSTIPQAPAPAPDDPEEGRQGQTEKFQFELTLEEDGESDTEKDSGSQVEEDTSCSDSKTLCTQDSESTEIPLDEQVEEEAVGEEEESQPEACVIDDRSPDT
Chain of PDE4D-cat (Q08499 380-743 S715A/S717A): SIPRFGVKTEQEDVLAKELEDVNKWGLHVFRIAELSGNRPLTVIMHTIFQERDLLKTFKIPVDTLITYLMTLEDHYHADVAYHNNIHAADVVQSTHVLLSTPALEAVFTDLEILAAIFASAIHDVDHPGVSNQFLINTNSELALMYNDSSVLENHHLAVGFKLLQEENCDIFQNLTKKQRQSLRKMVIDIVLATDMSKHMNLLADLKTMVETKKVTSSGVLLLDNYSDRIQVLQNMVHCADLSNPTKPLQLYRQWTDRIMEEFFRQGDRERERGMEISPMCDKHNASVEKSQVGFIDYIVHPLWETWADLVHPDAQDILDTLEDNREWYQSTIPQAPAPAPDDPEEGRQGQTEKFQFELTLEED

Consider `CCc1cc(Cc2ccc(CC(N)=O)cc2)nc(-c2cccc(Cl)c2)n1` [Compound 23, 2-(4-((2-(3-Chlorophenyl)-6-ethylpyrimidin-4-yl)methyl)phenyl)acetamide], for which the “parent remaining in liver microsomes” value in data set [1] (dog, mouse, rat and monkey liver microsomes, at 30 min) is 54-90%. The same molecule showed an extended absorption in data set [2] of 4 to 8 h. In addition, the “shift in IC50 for PDE4D7-S129D inhibition in the presence of BSA” value in [3] is reported as “no shift”.

Turning to `O=C(O)Cc1ccc(Cc2cc(-c3cccc(Cl)c3)nc(C(F)(F)F)c2)cc1` [Compound 28, 2-(4-((2-(3-chlorophenyl)-6-(trifluoromethyl)pyridin-4-yl)methyl)phenyl)acetic acid], the “Hill Slope PDE4D7-S129D dimer activated” value in [4] came to 0.55± 0.12. In addition, the “Hill Slope PDE4B1-S133D dimer activated” value in data set [5] stood at 0.92 ± 0.21. The “Hill Slope PDE4D7-S129(wt) dimer basal” value in [6] came to 0.58 ± 0.11. Moreover, in [7], the “Hill Slope PDE4D3-S54D dimer activated” value is on record as 0.68 ± 0.14. Also, the “Hill Slope PDE4D2 monomer” value in data set [8] is reported as 0.60± 0.16. The “Hill Slope PDE4D-cat monomer” value in data set [9] is 1.2 ± 0.10. Moreover, the “remaining in liver microsomes” value in data set [1] (rat, mouse and dog liver microsomes, after 30 min incubation) is on record as 88-100%. For the same molecule, in data set [10] (oral (PO), versus vehicle), the “doses that significantly improved novel object discrimination” value is listed as “above 0.3 mg/kg”. Besides, the “effect on anesthesia duration” value in data set [11] (doses of 3, 10 and 30 mg/kg PO) is “no significant effect”. Besides, the “change in anesthesia duration” value in data set [11] (doses up to 30 mg/kg) is recorded as “no change”. The IC50 in [12] was > 10 µM. Besides, in data set [13], the “adverse CNS or pulmonary effects” value is given as “no adverse CNS or pulmonary effects”. For the same molecule, in [14], the “effect on cardiovascular function” value is given as “no effect”. Besides, in data set [15], the “dose range finding toxicology findings” value was “inappetence and weight loss”. Also, the “dose range finding toxicology findings” value in data set [16] is “emesis, tremor and weight loss”. The “vascular toxicity and microscopic findings” value in [17] is on record as “did not reveal vascular toxicity nor any other microscopic findings”. Further, the emesis result in [18] is given as “did not cause emesis”. The emesis result in data set [19] is “nor did it cause emesis”. Besides, the “maturation of dendritic spines on layer 2/3 pyramidal cells” value in data set [20] (FMR1 knockout mice) is recorded as “promotes”. Also, the “behavior of adult FMR1 knockout mice” value in [20] is “normalizes”. The “potency in humanized PDE4D mice as compared to wild-type mice” value in data set [21] is reported as “increased potency”. Further, in [21] (mice), the “brain cAMP” value is recorded as “increases”, the “late phase of hippocampal long-term potentiation (LTP)” value is reported as “augments”, the “phosphorylation of CREB” value is on record as “increases” and the “production of brain-derived neurotrophic factor (BDNF) in hippocampus” value is “increases”. For the same molecule, the “short and long term memory” value in data set [21] (mice) is given as “improves”. Also, the mutagenicity in bacteria entry in data set [22] was “not mutagenic”.

Turning to `CCc1cc(Cc2ccc(CC(=O)NCCO)cc2)nc(-c2cccc(Cl)c2)n1` [Compound 29, 2-(4-((2-(3-Chlorophenyl)-6-ethylpyrimidin-4-yl)methyl)phenyl)-N-(2-hydroxyethyl)acetamide], in data set [4], the “Hill Slope PDE4D7-S129D dimer activated” value stood at 0.66± 0.03. Moreover, in data set [5], the “Hill Slope PDE4B1-S133D dimer activated” value is recorded as 0.37 ± 0.04. In addition, in data set [6], the “Hill Slope PDE4D7-S129(wt) dimer basal” value is given as 0.50 ± 0.1.

`CCc1cc(Cc2ccc(CC(=O)O)cc2)nc(-c2cccc(Cl)c2)n1` [Compound M6]: the “percentage of metabolite present” value in [23] is listed as <1%; in data set [24], 29.1%.

Take `COc1ccc(C2CNC(=O)C2)cc1OC1CCCC1` (stereo not drawn) [rolipram, reference compound]: the “dose that significantly improved novel object discrimination” value in data set [10] (SC) was 0.1 mg/kg.

Usually IC50 stands for the concentration at which inhibition is half-maximal.
